Results as given in US9902934B2, “Human keratinocytes PTCH1 cell line” (GALDERMA RESEARCH & DEVELOPMENT, priority 2011, dated 2018).

Experiments:
SHH/PTCH pathway [1] = experiment: Inhibition of purmorphamine-induced luciferase activity in SK PTCH1-Luc E6/E7 keratinocytes; format: cell-based; details: Homo sapiens, Keratinocyte, SK PTCH1-Luc E6/E7 cells, co-treatment 48 hours with 2.5 μM purmorphamine (EC80)
Description: (§1) Purmorphamine (SMO agonist) and GDC-0449 (SMO antagonist) were diluted in DMSO at stock concentrations of 50 mM and 10 mM, respectively. To avoid side effects and toxicity, the final concentration of DMSO was fixed to 0.1% DMSO.
(§2) Lysis buffer and luciferase reagents were from the Steady-Glo® Luciferase Assay System kit (Promega, #E2520). Plates were read on a […] (TopCount, Perkin Elmer).
(§3) Experimental conditions of activation using SMO agonist of the PTCH1-Luc-E6 E7 reporter cells were first set up for optimisation. The SK PTCH1-Luc E6/E7 cells were plated in 96-well at various densities (5000 to 50000 cells/well) in opaque plates (Greiner, ref: 655083). In parallel, in order to follow cell growth, confluency, and lysis, the cell line was also seeded in transparent 96 wells plates (Greiner 655098). Serial dilutions of purmorphamine were prepared (0.2 nM<Conc.<50 μM). Results were matched with EC50 and IC50 values obtained in the SHH-Light II cell line.
Co-treatment of SK PTCH1-Luc E6/E7 cells with purmorphamine and GDC-0449 led to the inhibition of the luciferase activity (FIG. 5). Under these circumstances, the IC50 of GDC-0449 was determined at 0.2 μM.

SHH/PTCH pathway [2] = experiment: Activation of PTCH1-luciferase reporter activity in SK PTCH1-Luc E6/E7 keratinocytes; format: cell-based, human; details: SK PTCH1-Luc E6/E7 cells, cultured 24 hours
Description: as §1, §2, §3
Once experimental conditions optimized, SK PTCH1-Luc E6/E7 cells were plated at 45.000 cells per well, culture for 24 hours then treated for 48 hours by serial dilutions of purmorphamine. Each condition was done in duplicate and the experiment was performed at least twice. SK PTCH1-Luc E6/E7 cells responded to activation of the SHH/PTCH pathway when treated with purmorphamine and the EC50 value was determined at 1 μM (FIG. 3).

Compound	IC50 (SHH/PTCH pathway [1])	EC50 (SHH/PTCH pathway [2]; Homo sapiens, Keratinocyte, 45.000 cells per well, treated 48 hours)	effective concentration for 80% activation (EC80) (SHH/PTCH pathway [2]; 45.000 cells/well, treated 48 hrs)
CS(=O)(=O)c1ccc(C(=O)Nc2ccc(Cl)c(-c3ccccn3)c2)c(Cl)c1 [GDC-0449]	0.2 µM		
c1ccc2c(Oc3nc(Nc4ccc(N5CCOCC5)cc4)c4ncn(C5CCCCC5)c4n3)cccc2c1 [purmorphamine, Purmorphamine]		1 µM	2.5 µM
